This data set in a line: RP, Waters ACQUITY UPLC BEH C8, 100 × 2.1 mm, 1.7 µm, 50 °C, 0.35 mL/min, estimated dead time 0.63 min; A: water + 0.1% formic acid; B: acetonitrile + 0.1% formic acid; gradient (min/%B) 0/5 1/5 24/100 28/100. The note with it: stereoisomer not certain.

Turning to `CC(C)CCCC(C)C1CCC2C3C(=O)C=C4CC(O)CCC4(C)C3CCC12C` (stereo not drawn), the LC retention time is 19.4 min.
`CCCCCC=CCC=CCC=CCCCCCCC(=O)OCC(COP(=O)([O-])OCC[N+](C)(C)C)OC(=O)CCCCCCCCCCCCC` (stereo not drawn): the LC retention time is 20.2 min.
For the molecule `CCCCCC=CCC=CCC=CCC=CCCCC(=O)O`, the LC retention time is 17.9 min.
Take `CC(C)(CO)C(O)C(=O)NCCC(=O)O` (stereo not drawn): the LC retention time was 1.92 min.
Regarding `CCCCCCCCCCCCCCCC(=O)NCCO`, the LC retention time is 16.3 min.
Consider `CCCCCCCCCCCCCCCC(=O)OCC(O)COP(=O)([O-])OCC[N+](C)(C)C` (stereo not drawn), for which the LC retention time was 14.3 min.
`CCCCCCCCC=CCCCCCCCCCC(=O)OC(CC(=O)O)C[N+](C)(C)C` (stereo not drawn): the LC retention time is 16.3 min.
Under `CCCCCCCCCCCCCCCCCCC(=O)OCC(O)COP(=O)([O-])OCC[N+](C)(C)C` (stereo not drawn) stands 16.8 min; under `CC(C)CC(NC(=O)CCC([NH3+])C(=O)[O-])C(=O)[O-]` (stereo not drawn), 3.05 min.
With `CCCCCCCCC=CCCCCCC(=O)OC(CC(=O)O)C[N+](C)(C)C` (stereo not drawn), the LC retention time was 13.9 min.
Turning to `CCCCCCCCCCCCCCCC(O)C(N)CO` (stereo not drawn), the LC retention time was 12.6 min.
The same measure for `CCCCCC=CCC=CCC=CCCCCCCC(=O)O`: 18.4 min.
On to `CC(C)CC(NC(=O)C1CCCN1)C(=O)O` (stereo not drawn), for which the LC retention time is 1.12 min.
In the case of `CCCCCCCCCCCCCCCC(N)=O`, the LC retention time is 16.9 min.
With `NN1CCOC1=O`, the LC retention time is 1.6 min.
Take `CSCCC(N)C(=O)O` (stereo not drawn): the LC retention time is 1.02 min.
The same measure for `O=c1[nH]cnc2nc[nH]c12`: 1.02 min; for `O=Cc1ccc(O)cc1`: 1.03 min; for `O=C(CO)CO`: 1.6 min.
`CCCCCCCCCCCCCCC=CCCCCCCCCCC(=O)OC(CC(=O)O)C[N+](C)(C)C` (stereo not drawn): the LC retention time is 19.1 min.
Under `O=CCC(O)C(O)C(O)CO` (stereo not drawn) stands 0.783 min; under `CCn1cc(C(=O)O)c(=O)c2ccc(C)nc21`, 7.7 min; under `CCCCCCCCCCCCCC(=O)OC(CC(=O)O)C[N+](C)(C)C` (stereo not drawn), 13.3 min.
Consider `CCCCC=CC=CCCCCCC(=O)OC(CC(=O)O)C[N+](C)(C)C` (stereo not drawn), for which the LC retention time is 11.9 min.
The same measure for `CCCCCCCCCCCCCC=CC(O)C(N)COP(=O)(O)O` (stereo not drawn): 13 min; for `NCCc1c[nH]c2ccc(O)cc12`: 1.02 min; for `CCCC=CCCC(=O)OC(CC(=O)O)C[N+](C)(C)C` (stereo not drawn): 6.8 min.
Regarding `CCCCCCCCCCCCCCCCCCCCCC(=O)OC(CC(=O)O)C[N+](C)(C)C` (stereo not drawn), the LC retention time is 18.1 min.
Take `CCCCC=CCCCCCCCC(=O)OC(CC(=O)O)C[N+](C)(C)C` (stereo not drawn): the LC retention time is 12.7 min.
With `C1CCNC1`, the LC retention time was 1.03 min.
Under `CCCCCCC(N)C(=O)O` (stereo not drawn) stands 0.8 min; under `CC(C)CCCCCOC(=O)c1ccccc1C(=O)OCCCCCC(C)C`, 20.8 min.
Take `CC(CCC(=O)NCC(=O)O)C1CCC2C3CCC4CC(O)CCC4(C)C3CC(O)C12C` (stereo not drawn): the LC retention time is 11.8 min.
With `CCCCCCCCC(=O)OC(CC(=O)O)C[N+](C)(C)C` (stereo not drawn), the LC retention time was 8.62 min.
Turning to `NC(Cc1ccc(O)cc1)C(=O)O` (stereo not drawn), the LC retention time was 1.03 min.
As for `Cc1cnc2ccccc2c1`, the LC retention time is 2.47 min.
With `CCCC(=O)OC(CC(=O)O)C[N+](C)(C)C` (stereo not drawn), the LC retention time is 2.28 min.
Consider `CC(CCC(=O)NCC(=O)O)C1CCC2C3C(O)C(O)C4CC(O)CCC4(C)C3CCC12C` (stereo not drawn), for which the LC retention time is 9.97 min.
As to `CC(=O)Nc1ccc(O)cc1`, the LC retention time was 1.98 min.
The same measure for `CCCCCCCCC=CCC=CCCC(=O)OC(CC(=O)O)C[N+](C)(C)C` (stereo not drawn): 13.2 min; for `C=CC1=C(C)C(C=c2[nH]c(=Cc3[nH]c(C=C4NC(=O)C(C)=C4C=C)c(C)c3CCC(=O)O)c(CCC(=O)O)c2C)=NC1=O`: 10.7 min.
Regarding `CCCCCC=CC=CCCCCCCCCC(=O)OC(CC(=O)O)C[N+](C)(C)C` (stereo not drawn), the LC retention time is 14.4 min.
Turning to `CC(C)NCC(O)COc1ccc(CC(N)=O)cc1` (stereo not drawn), the LC retention time was 2.03 min.
Under `CCCCCCC=CCCCCCCCC(=O)O` stands 17.4 min; under `CCCCCCC=CCCCC(=O)OC(CC(=O)O)C[N+](C)(C)C` (stereo not drawn), 11.4 min.
For `CC(CCC(=O)O)C1CCC2C3CCC4CC(O)CCC4(C)C3CC(O)C12C` (stereo not drawn), the LC retention time is 13.3 min.
As to `Cc1cc2nc3c(=O)[nH]c(=O)nc-3n(CC(O)C(O)C(O)CO)c2cc1C` (stereo not drawn), the LC retention time was 3.85 min.
The same measure for `CCCCCCC=CCCCCCCCCCCOCC(O)COP(=O)([O-])OCC[N+](C)(C)C` (stereo not drawn): 14.4 min; for `CCCCCCCCC=CCCCCCCCC(=O)NCCO`: 16.9 min; for `CCC=CCC=CCC=CCC=CCC=CCCCC(=O)O`: 18.1 min.
Under `CCCCCCCCOC(=O)c1ccccc1C(=O)OCCCCCCCC` stands 21.4 min; under `CCCCCCCCCCCCCCCC(=O)O`, 18.4 min.
For the molecule `Cn1cnc2c(ncn2C2OC(CO)C(O)C2O)c1=N` (stereo not drawn), the LC retention time was 1 min.
In the case of `O=C(O)C1CCCN1` (stereo not drawn), the LC retention time is 0.9 min.
As for `CCCCC(=O)OC(CC(=O)O)C[N+](C)(C)C` (stereo not drawn), the LC retention time was 3.7 min.
As for `CC(C)CCCC(C)C1CCC2C3CCC4=CC(=O)CCC4(C)C3CCC12C` (stereo not drawn), the LC retention time is 21.8 min.
As to `O=C(O)C1CCCCN1` (stereo not drawn), the LC retention time was 0.817 min.
Turning to `CC(=O)Nc1ccc(OC2OC(C(=O)O)C(O)C(O)C2O)cc1` (stereo not drawn), the LC retention time is 1.22 min.
On to `CC12CCC(=O)C=C1CCC1C2C(O)CC2(C)C1CCC2(O)C(=O)CO` (stereo not drawn), for which the LC retention time is 7.77 min.
For `O=C(O)CCc1c[nH]c2ccccc12`, the LC retention time is 7.33 min.
As for `CCCCCCCCCCCCCCCCCCCC(=O)OC(CC(=O)O)C[N+](C)(C)C` (stereo not drawn), the LC retention time was 17.1 min.
The same measure for `NC(Cc1ccccc1)C(=O)NC(Cc1ccccc1)C(=O)O` (stereo not drawn): 5.35 min; for `NC(Cc1ccccc1)C(=O)N1CCCC1C(=O)O` (stereo not drawn): 4.18 min.
Under `Oc1ccc2[nH]ccc2c1` stands 3.23 min; under `CCCCCCCCCCCCCCCCCC(N)=O`, 18.4 min; under `O=C(O)c1ccccc1O`, 4.47 min.
The same measure for `NC(Cc1ccccc1)C(=O)O` (stereo not drawn): 1.63 min; for `Nc1ccccc1C(=O)CC(N)C(=O)O` (stereo not drawn): 1.53 min; for `CCCCCCCCCCCCCCC(=O)OC(CC(=O)O)C[N+](C)(C)C` (stereo not drawn): 13.8 min.
With `CCC=CCC=CCC=CCCCCCCCC(=O)O`, the LC retention time was 17.1 min.
Under `CCCCCC=CCC=CCCCCCCCC(=O)OCC(O)CO` (stereo not drawn) stands 17 min.
As for `CCC=CCC=CCCC(=O)OC(CC(=O)O)C[N+](C)(C)C` (stereo not drawn), the LC retention time is 8.58 min.
Regarding `CCC=CCC=CCC=CCC=CCC=CCCCC(=O)OCC(COP(=O)([O-])OCC[N+](C)(C)C)OC(=O)CCCC=CCC=CCC=CCCCCCCCC` (stereo not drawn), the LC retention time is 22 min.
On to `CCCCOC(=O)c1ccccc1C(=O)OCCCC`, for which the LC retention time is 15.7 min.
Regarding `Nc1nc2ccc(C(=O)c3ccccc3)cc2[nH]1`, the LC retention time is 5.28 min.
`O=C(O)C=Cc1ccccc1`: the LC retention time was 1.6 min.
Consider `CCCCCCCCCCCCCCCCCCOCC(O)COP(=O)([O-])OCC[N+](C)(C)C` (stereo not drawn), for which the LC retention time is 15.3 min.
The same measure for `C[N+](C)(C)CC(O)CC(=O)[O-]` (stereo not drawn): 0.767 min; for `CCCCCCCCCCCCCCCCCCCCCCCCCC(=O)OC(CC(=O)O)C[N+](C)(C)C` (stereo not drawn): 19.8 min.
As for `NC(Cc1c[nH]c2ccccc12)C(=O)O` (stereo not drawn), the LC retention time is 2.47 min.
As for `CCCCCCC=CCCCCCCCCCC(=O)O`, the LC retention time was 18.9 min.
For the molecule `CCCCCCCCCCCCCCCCCCCCCCCC(=O)OC(CC(=O)O)C[N+](C)(C)C` (stereo not drawn), the LC retention time was 19 min.
Under `Cn1cccc1-c1cccnc1` stands 2.47 min; under `CC(=O)CCC=C(C)CCC=C(C)CCC=C(C)C`, 17.9 min.
The same measure for `CCCCC=CCCC(=O)OC(CC(=O)O)C[N+](C)(C)C` (stereo not drawn): 7.65 min; for `CCCCCC=CCC=CCC=CCCCCCCC(=O)OCC(O)COP(=O)([O-])OCC[N+](C)(C)C` (stereo not drawn): 15.9 min; for `CCCCC=CCCCCCCC(=O)OC(CC(=O)O)C[N+](C)(C)C` (stereo not drawn): 11.8 min.
The same measure for `CCCCCCCCC=CCCCCCCCCCCCC(N)=O`: 18.8 min; for `CCC=CCC=CCC=CCC=CCC=CCC=CCCC(=O)O`: 17.8 min; for `CC(C)C1=CC2=CCC3C(C)(C(=O)O)CCCC3(C)C2CC1` (stereo not drawn): 17.1 min.
Consider `CCCCCCCCC=CCCCCCCCCCC(=O)O`, for which the LC retention time was 20.1 min.
As to `CCCCCC=CCCC(=O)OC(CC(=O)O)C[N+](C)(C)C` (stereo not drawn), the LC retention time is 9.35 min.
Regarding `O=C(O)C(O)c1ccc(O)c(O)c1` (stereo not drawn), the LC retention time was 13.9 min.
Take `Cn1c(=O)[nH]c2ncn(C)c2c1=O`: the LC retention time is 2.28 min.
Under `CCCCCCCCC=CCCCCCCCC(N)=O` stands 17.4 min; under `O=C(O)C(O)Cc1c[nH]c2ccccc12` (stereo not drawn), 5.17 min; under `NC(=O)CCC(NC(=O)Cc1ccccc1)C(=O)O` (stereo not drawn), 3.67 min.
Regarding `CCCCCCC=CCCCCCCCCCC(=O)OC(CC(=O)O)C[N+](C)(C)C` (stereo not drawn), the LC retention time is 15.2 min.

(Values after the RepoRT retention time repository (doi:10.1038/s41596-020-0341-5).)
